# Assay results reported in publication PMC11183015, “In vivo stable ^211At-labeled prostate-specific membrane antigen-targeted tracer using a neopentyl glycol structure” (EJNMMI Radiopharmacy and Chemistry, 2024).
# Marks after values point to notes of the source that are not given here.
# Tests used:
# Type in all cases: in vivo, mouse
# [1] = Analysis of radiometabolites in urine by RP-HPLC; conditions: normal ddY mice, urine up to 6 h after injection
# Description: Urine samples were collected from 6-week-old ddY mice 6 h after injection of each ^125I-labeled PSMA derivative (100 µL, 370 kBq). After ethanol precipitation of proteins, the urine samples were filtered through a polycarbonate membrane (0.45 µm) and analyzed by RP-HPLC (System 2).
# LNCaP cell xenografts = assay: Biodistribution of radioactivity in tumor-bearing mice; conditions: for Radioactivity in Intestine / Radioactivity in Neck / Radioactivity in Stomach: LNCaP tumor-bearing BALB/c-nu/nu mice; for Radioactivity in Blood / Radioactivity in Bone / Radioactivity in Heart / Radioactivity in Kidney / Radioactivity in Liver / Radioactivity in Lung / Radioactivity in Muscle / Radioactivity in Pancreas / Radioactivity in Spleen / Radioactivity in Tumor: male, BALB/c-nu/nu, mouse, in vivo
# Description: Animal studies were conducted in accordance with the institutional guidelines approved by the Chiba University Animal Care Committee (Permit No. 4–183). Five-week-old male ddY mice and BALB/c-nu/nu mice were purchased from Japan SLC Inc. (Hamamatsu, Japan). LNCaP cells (5.0 × 10^6 cells) were suspended in 100 μL of PBS and Matrigel (BD Biosciences, Franklin Lakes, NJ, USA) in a 1:1 ratio. Tumor xenograft models were prepared via subcutaneous injection of this LNCaP cell suspension into BALB/c nude mice.
# Biodistribution studies were conducted using male BALB/c-nu/nu mice bearing LNCaP cell xenografts at 1 and 3 h postinjection of [^211At]At-NpG-D-PSMA (100 µL, 37 kBq) and 1 and 6 h postinjection of ^125I-labeled PSMA derivative (100 µL, 11.1 kBq). In the blocking study, [^125I]I-NpG-D-PSMA was coinjected with 2-PMPA (50 mg/kg weight) into tumor-bearing mice via the tail vein. At 1 h postinjection, the mice were sacrificed. The tissues of interest were excised and weighed, and the radioactivity counts in each tissue were determined using an auto-well gamma counter. Each value was expressed as the mean percent injected dose/g tissue ± SD for a group of 3–5 animals, except those for the stomach, intestine, and thyroid.
# [2] = Biodistribution of radioactivity in normal mice
# Description: Six-week-old male ddY mice were injected via the tail vein with each radiolabeled PSMA derivative. Animals were sacrificed and the organs were dissected at 10 min, 1 h, 3 h, and 6 h after injection. Metabolic cages were used for housing normal mice. The tissues of interest were excised and weighed, and the radioactivity counts in each tissue were determined using an auto-well gamma counter. Each value was expressed as the mean percent injected dose/g tissue ± SD for a group of 3–5 animals, except those for the stomach, intestine, and thyroid.
# [3] = normal ddY mice, i.v., 6 h, metabolic cages
structure (smiles),measurement,setting,value
O=C(O)CCC(NC(=O)NC(CCCCNC(=O)C(Cc1ccc2ccccc2c1)NC(=O)C(CCC(=O)O)NC(=O)C(CCC(=O)O)NC(=O)COCC(CO)(CO)C[125I])C(=O)O)C(=O)O [[^125I]I-NpG-L-PSMA],Form of radioactivity excreted in urine,[1],intact [^125I]I-NpG-L-PSMA and as radiometabolites
same,Radioactivity in Intestine,LNCaP cell xenografts; 1 h,2.52 ± 0.29^a %ID
same,Radioactivity in Neck,LNCaP cell xenografts; 1 h,0.45 ± 0.13^a %ID
same,Radioactivity in Stomach,LNCaP cell xenografts; 1 h,0.23 ± 0.04 %ID
same,Radioactivity in Intestine,LNCaP cell xenografts; 6 h,1.87 ± 0.41 %ID
same,Radioactivity in Neck,LNCaP cell xenografts; 6 h,3.19 ± 1.28 %ID
same,Radioactivity in Stomach,LNCaP cell xenografts; 6 h,0.15 ± 0.07 %ID
same,Radioactivity in Blood,LNCaP cell xenografts; 1 h,0.66 ± 0.18 %ID/g
same,Radioactivity in Bone,LNCaP cell xenografts; 1 h,0.47 ± 0.12^a %ID/g
same,Radioactivity in Heart,LNCaP cell xenografts; 1 h,1.62 ± 0.87 %ID/g
same,Radioactivity in Kidney,LNCaP cell xenografts; 1 h,223 ± 5.91^a %ID/g
same,Radioactivity in Liver,LNCaP cell xenografts; 1 h,1.85 ± 0.50^a %ID/g
same,Radioactivity in Lung,LNCaP cell xenografts; 1 h,2.78 ± 0.93 %ID/g
same,Radioactivity in Muscle,LNCaP cell xenografts; 1 h,0.64 ± 0.21^a %ID/g
same,Radioactivity in Pancreas,LNCaP cell xenografts; 1 h,1.17 ± 0.38 %ID/g
same,Radioactivity in Spleen,LNCaP cell xenografts; 1 h,37.0 ± 10.4 %ID/g
same,Radioactivity in Tumor,LNCaP cell xenografts; 1 h,9.19 ± 1.89^a %ID/g
same,Radioactivity in Blood,LNCaP cell xenografts; 6 h,0.11 ± 0.03^a %ID/g
same,Radioactivity in Bone,LNCaP cell xenografts; 6 h,0.09 ± 0.02 %ID/g
same,Radioactivity in Heart,LNCaP cell xenografts; 6 h,0.22 ± 0.06^a %ID/g
same,Radioactivity in Kidney,LNCaP cell xenografts; 6 h,226 ± 30.0 %ID/g
same,Radioactivity in Liver,LNCaP cell xenografts; 6 h,0.44 ± 0.02^a %ID/g
same,Radioactivity in Lung,LNCaP cell xenografts; 6 h,0.59 ± 0.12^a %ID/g
same,Radioactivity in Muscle,LNCaP cell xenografts; 6 h,0.27 ± 0.31 %ID/g
same,Radioactivity in Pancreas,LNCaP cell xenografts; 6 h,0.26 ± 0.08^a %ID/g
same,Radioactivity in Spleen,LNCaP cell xenografts; 6 h,4.55 ± 1.18^a %ID/g
same,Radioactivity in Tumor,LNCaP cell xenografts; 6 h,11.0 ± 2.68^a %ID/g
same,Radioactivity in Blood,"[2]; normal ddY mice, i.v., 10 min",1.48 ± 0.20^b %ID/g
same,Radioactivity in Bone,"[2]; normal ddY mice, i.v., 10 min",0.68 ± 0.18^a %ID/g
same,Radioactivity in Heart,"[2]; normal ddY mice, i.v., 10 min",1.12 ± 0.24 %ID/g
same,Radioactivity in Intestine,"[2]; normal ddY mice, i.v., 10 min",2.49 ± 0.66 %ID
same,Radioactivity in Kidney,"[2]; normal ddY mice, i.v., 10 min",92.3 ± 11.0^b %ID/g
same,Radioactivity in Liver,"[2]; normal ddY mice, i.v., 10 min",1.64 ± 0.33^a %ID/g
same,Radioactivity in Lung,"[2]; normal ddY mice, i.v., 10 min",2.15 ± 0.49^a %ID/g
same,Radioactivity in Muscle,"[2]; normal ddY mice, i.v., 10 min",0.62 ± 0.18^a %ID/g
same,Radioactivity in Neck,"[2]; normal ddY mice, i.v., 10 min",0.34 ± 0.09^a %ID
same,Radioactivity in Pancreas,"[2]; normal ddY mice, i.v., 10 min",0.80 ± 0.16 %ID/g
same,Radioactivity in Spleen,"[2]; normal ddY mice, i.v., 10 min",2.23 ± 1.10 %ID/g
same,Radioactivity in Stomach,"[2]; normal ddY mice, i.v., 10 min",0.33 ± 0.09 %ID
same,Radioactivity in Blood,"[2]; normal ddY mice, i.v., 1 h",0.26 ±0.01 %ID/g
same,Radioactivity in Bone,"[2]; normal ddY mice, i.v., 1 h",0.36 ± 0.43 %ID/g
same,Radioactivity in Heart,"[2]; normal ddY mice, i.v., 1 h",0.60 ± 0.37 %ID/g
same,Radioactivity in Intestine,"[2]; normal ddY mice, i.v., 1 h",3.40 ± 0.86^a %ID
same,Radioactivity in Kidney,"[2]; normal ddY mice, i.v., 1 h",113.6 ±3.86^ab %ID/g
same,Radioactivity in Liver,"[2]; normal ddY mice, i.v., 1 h",0.99 ± 0.14^ab %ID/g
same,Radioactivity in Lung,"[2]; normal ddY mice, i.v., 1 h",0.69 ± 0.16^ab %ID/g
same,Radioactivity in Muscle,"[2]; normal ddY mice, i.v., 1 h",0.14 ± 0.03 %ID/g
same,Radioactivity in Neck,"[2]; normal ddY mice, i.v., 1 h",0.07 ± 0.03^a %ID
same,Radioactivity in Pancreas,"[2]; normal ddY mice, i.v., 1 h",1.40 ± 1.78 %ID/g
same,Radioactivity in Spleen,"[2]; normal ddY mice, i.v., 1 h",1.05 ± 0.19^ab %ID/g
same,Radioactivity in Stomach,"[2]; normal ddY mice, i.v., 1 h",0.35 ± 0.30 %ID
same,Radioactivity in Blood,"[2]; normal ddY mice, i.v., 3 h",0.04 ± 0.01 %ID/g
same,Radioactivity in Bone,"[2]; normal ddY mice, i.v., 3 h",0.09 ± 0.04 %ID/g
same,Radioactivity in Heart,"[2]; normal ddY mice, i.v., 3 h",0.06 ± 0.01 %ID/g
same,Radioactivity in Intestine,"[2]; normal ddY mice, i.v., 3 h",4.96 ± 0.17^ab %ID
same,Radioactivity in Kidney,"[2]; normal ddY mice, i.v., 3 h",38.6 ± 11.9^a %ID/g
same,Radioactivity in Liver,"[2]; normal ddY mice, i.v., 3 h",0.43 ± 0.01^ab %ID/g
same,Radioactivity in Lung,"[2]; normal ddY mice, i.v., 3 h",0.21 ± 0.03^ab %ID/g
same,Radioactivity in Muscle,"[2]; normal ddY mice, i.v., 3 h",0.10 ± 0.05 %ID/g
same,Radioactivity in Neck,"[2]; normal ddY mice, i.v., 3 h",0.01 ± 0.00 %ID
same,Radioactivity in Pancreas,"[2]; normal ddY mice, i.v., 3 h",0.12 ± 0.03 %ID/g
same,Radioactivity in Spleen,"[2]; normal ddY mice, i.v., 3 h",0.22 ± 0.07^ab %ID/g
same,Radioactivity in Stomach,"[2]; normal ddY mice, i.v., 3 h",0.08 ± 0.02^b %ID
same,Radioactivity in Blood,"[2]; normal ddY mice, i.v., 6 h",0.03 ± 0.02 %ID/g
same,Radioactivity in Bone,"[2]; normal ddY mice, i.v., 6 h",0.05 ± 0.01 %ID/g
same,Radioactivity in Heart,"[2]; normal ddY mice, i.v., 6 h",0.05 ± 0.05 %ID/g
same,Radioactivity in Intestine,"[2]; normal ddY mice, i.v., 6 h",4.60 ± 2.56 %ID
same,Radioactivity in Kidney,"[2]; normal ddY mice, i.v., 6 h",21.2 ± 9.70^a %ID/g
same,Radioactivity in Liver,"[2]; normal ddY mice, i.v., 6 h",0.53 ±0.02^ab %ID/g
same,Radioactivity in Lung,"[2]; normal ddY mice, i.v., 6 h",0.09 ± 0.03^a %ID/g
same,Radioactivity in Muscle,"[2]; normal ddY mice, i.v., 6 h",0.05 ± 0.01 %ID/g
same,Radioactivity in Neck,"[2]; normal ddY mice, i.v., 6 h",0.02 ± 0.01 %ID
same,Radioactivity in Pancreas,"[2]; normal ddY mice, i.v., 6 h",0.07 ± 0.04 %ID/g
same,Radioactivity in Spleen,"[2]; normal ddY mice, i.v., 6 h",0.11 ± 0.03^a %ID/g
same,Radioactivity in Stomach,"[2]; normal ddY mice, i.v., 6 h",0.23 ± 0.29 %ID
same,Radioactivity in Feces,[2]; [3],0.45 ± 0.48 %ID
same,Radioactivity in Urine,[2]; [3],53.3 ± 5.56 %ID
same,Accumulation in the stomach and thyroid (stability against deiodination),[2]; normal mice,low accumulation
